Measurements as given in US20260374766A1, “METHODS FOR TREATING CANCER” (Antares Therapeutics, Inc., priority 2022, published 2026).

How the values were obtained:
H1299 p53 R273H = assay: Cell Proliferation Assay (CellTiter-Glo, CTG), H1299 p53 R273H (NClH1299-inducible p53 R273H); assay type: cell-based; details: Homo sapiens, NCI-H1299, 120 h, NClH1299-inducible p53 R273H cells, 5 days, CellTiter-Glo
Summary of the method: (§1)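 NClH1299 lines stably transduced with Tet-inducible p53 Y220C or R273H, plus NUGC3, were treated with compound for 5 days at 250-500 cells/well. IC50 derived from CellTiter-Glo luminescent signal after 10 min room-temperature incubation.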

H1299 p53 Y220C = assay: Cell Proliferation Assay (CellTiter-Glo, CTG), H1299 p53 Y220C (NClH1299-inducible p53 Y220C); assay type: cell-based; details: Homo sapiens, NCI-H1299, 120 h, NClH1299-inducible p53 Y220C cells, 5 days, CellTiter-Glo
Summary of the method: as §1

p53 Y220C = p53 Y220C (Homo sapiens, UniProt P04637, Y220C); assay: Luciferase Reporter Assay (Luc), p53 response element, NClH1299 cells with inducible p53 Y220C; assay type: cell-based; details: luciferase reporter, NClH1299 inducible p53 Y220C, 6 hour; for AC50: read-out: Luc P53 Y220C AC50
Summary of the method: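 Doxycycline (0.5 ug/mL, 24 h) induces the mutant before a 6-hour compound treatment. Reporter activity is then quantified by One-Glo luminescence.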

[1] = biological target: T1, p53 Y220C mutant protein (amino acid residues 94-293) (Homo sapiens, UniProt P04637, Y220C); assay: Surface Plasmon Resonance (SPR) assay, Kd_kinetic; assay type: binding; details: SPR; p53 Y220C; read-out: SPR P53 Y220C KD kinetic
T1 construct: p53 Y220C mutant protein (amino acid residues 94-293)
T1 sequence (P04637 94-293, stated change not applied): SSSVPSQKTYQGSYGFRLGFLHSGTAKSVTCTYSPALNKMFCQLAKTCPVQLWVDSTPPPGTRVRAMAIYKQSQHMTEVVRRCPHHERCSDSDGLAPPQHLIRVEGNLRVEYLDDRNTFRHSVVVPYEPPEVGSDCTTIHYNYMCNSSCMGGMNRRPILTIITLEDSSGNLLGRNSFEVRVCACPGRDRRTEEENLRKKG
Summary of the method: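 Temperature held at 16 or 20 °C during Biacore 8K runs. Buffer: 50 mM Tris, pH 7.5, 100 mM NaCl, 1 mM DTT, 0.01% Brij35, 0.05% Tween-20, 1% DMSO.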

NUGC3 p53 Y220C = assay: Cell Proliferation Assay (CellTiter-Glo, CTG), NUGC3 p53 Y220C; assay type: cell-based; details: Homo sapiens, NUGC-3, 120 h, NUGC3 cells, 5 days, CellTiter-Glo
Summary of the method: as §1

IC50 (H1299 p53 R273H) | IC50 (H1299 p53 Y220C) | AC50 (p53 Y220C) | Emax (p53 Y220C) | Kd [1] | SMILES | IC50 (NUGC3 p53 Y220C)
≥ 10000 nM | < 750 nM | < 750 nM | 80 to 90% | < 10 nM | CN1CC[C@@H](Nc2cccn3c(SC(F)(F)F)c(C#CCNc4ccc(P(C)(C)=O)nc4)cc23)[C@@H](F)C1 [Example 420, 2-(3-{[6-(dimethylphosphoryl)pyridin-3-yl]amino}prop-1-yn-1-yl)-N-[(3S,4R)-3-fluoro-1-methylpiperidin-4-yl]-3-[(trifluoromethyl)sulfanyl]indolizin-8-amine] | < 750 nM
≥ 10000 nM | < 750 nM | < 750 nM | > 90% | < 10 nM | COc1cc(C(=O)NC[C@@H](O)CO)ccc1NCC#Cc1cc2c(N[C@@H]3CCN(C)C[C@@H]3F)cccn2c1SC(F)(F)F [Example 421] | < 750 nM
≥ 10000 nM | < 750 nM | < 750 nM | > 90% | < 10 nM | COc1cc(C(=O)NC[C@H](O)CO)ccc1NCC#Cc1cc2c(N[C@@H]3CCN(C)C[C@@H]3F)cccn2c1SC(F)(F)F [Example 422] | < 750 nM
8000 to 10000 nM | < 750 nM | < 750 nM | > 90% | < 10 nM | COc1cc([S@@+](C)[O-])ccc1NCC#Cc1cc2c(N[C@@H]3CCN(C)C[C@@H]3F)cccn2c1SC(F)(F)F [Example 423] | < 750 nM
≥ 10000 nM | < 750 nM | < 750 nM | > 90% | < 10 nM | COc1ccc(C(=O)NCC(C)(C)O)cc1NCC#Cc1cc2c(N[C@@H]3CCN(C)C[C@@H]3F)cccn2c1SC(F)(F)F [Example 424] | < 750 nM
8000 to 10000 nM | < 750 nM | < 750 nM | > 90% | < 10 nM | CN1CC[C@@H](Nc2cccn3c(SC(F)(F)F)c(C#CCNc4ccc(C(=O)N[C@H]5C[C@H](O)C5)cc4)cc23)[C@@H](F)C1 [Example 426] | < 750 nM
≥ 10000 nM | < 750 nM | < 750 nM | > 90% | < 10 nM | CN1CC[C@@H](Nc2cccn3c(SC(F)(F)F)c(C#CCNc4ccc(C(=O)NCC5(O)CC5)cc4)cc23)[C@@H](F)C1 [Example 427] | < 750 nM
≥ 10000 nM | < 750 nM | < 750 nM | 80 to 90% | < 10 nM | CN1CC[C@@H](Nc2cccn3c(SC(F)(F)F)c(C#CCNc4ccc(P(C)(C)=O)cn4)cc23)[C@@H](F)C1 [Example 428, 2-(3-{[5-(dimethylphosphoryl)pyridin-2-yl]amino}prop-1-yn-1-yl)-N-[(3S,4R)-3-fluoro-1-methylpiperidin-4-yl]-3-[(trifluoromethyl)sulfanyl]indolizin-8-amine] | < 750 nM
≥ 10000 nM | < 750 nM | < 750 nM | 80 to 90% | < 10 nM | CN1CC[C@@H](Nc2cccn3c(SC(F)(F)F)c(C#CCNc4ccc(P(C)(C)=O)nn4)cc23)[C@@H](F)C1 [Example 429, 2-(3-{[6-(dimethylphosphoryl)pyridazin-3-yl]amino}prop-1-yn-1-yl)-N-[(3S,4R)-3-fluoro-1-methylpiperidin-4-yl]-3-[(trifluoromethyl)sulfanyl]indolizin-8-amine] | < 750 nM
≥ 10000 nM | < 750 nM | < 750 nM | > 90% | < 10 nM | CN1CC[C@@H](Nc2cccn3c(SC(F)(F)F)c(C#CCNc4ccc(C(=O)NCCS(C)(=O)=O)cc4)cc23)[C@@H](F)C1 [Example 430, 4-{[3-(8-{[(3S,4R)-3-fluoro-1-methylpiperidin-4-yl]amino}-3-[(trifluoromethyl)sulfanyl]indolizin-2-yl)prop-2-yn-1-yl]amino}-N-(2-methanesulfonylethyl)benzamide] | < 750 nM
≥ 10000 nM | < 750 nM | < 750 nM | > 90% | < 10 nM | C[C@H](O)CNC(=O)c1ccc(NCC#Cc2cc3c(N[C@@H]4CCN(C)C[C@@H]4F)cccn3c2SC(F)(F)F)cc1 [Example 431] | < 750 nM
≥ 10000 nM | < 750 nM | < 750 nM | > 90% | < 10 nM | CNC(=O)c1ccc(NCC#Cc2cc3c(N[C@@H]4CCN(C)C[C@@H]4F)cccn3c2SC(F)(F)F)c(C#N)c1 [Example 432, 3-cyano-4-{[3-(8-{[(3S,4R)-3-fluoro-1-methylpiperidin-4-yl]amino}-3-[(trifluoromethyl)sulfanyl]indolizin-2-yl)prop-2-yn-1-yl]amino}-N-methylbenzamide] | < 750 nM
5000 to 8000 nM | < 750 nM | < 750 nM | > 90% | < 10 nM | CNC(=O)c1ccc(NCC#Cc2cc3c(N[C@@H]4CCN(C)C[C@@H]4F)cccn3c2SC(F)(F)F)c(OC)n1 [Example 433, 5-{[3-(8-{[(3S,4R)-3-fluoro-1-methylpiperidin-4-yl]amino}-3-[(trifluoromethyl)sulfanyl]indolizin-2-yl)prop-2-yn-1-yl]amino}-6-methoxy-N-methylpyridine-2-carboxamide] | < 750 nM
5000 to 8000 nM | < 750 nM | < 750 nM | 80 to 90% | < 10 nM | CNC(=O)c1ccc(NCC#Cc2cn3c(N[C@@H]4CCNC[C@@H]4F)cccc3c2SC(F)(F)F)c(OC)c1 [Example 434] | < 750 nM
≥ 10000 nM | < 750 nM | < 750 nM | > 90% | < 10 nM | CNC(=O)c1ccc(NCC#Cc2cc3c(N[C@@H]4CCNC[C@@H]4F)cccn3c2SC(F)(F)F)c(OC2COC2)c1 [Example 435] | < 750 nM
≥ 10000 nM | < 750 nM | < 750 nM | > 90% | < 10 nM | CNC(=O)c1ccc(NCC#Cc2cc3c(N[C@@H]4CCN(C)C[C@@H]4F)cccn3c2SC(F)(F)F)c(OCF)c1 [Example 436, 4-{[3-(8-{[(3S,4R)-3-fluoro-1-methylpiperidin-4-yl]amino}-3-[(trifluoromethyl)sulfanyl]indolizin-2-yl)prop-2-yn-1-yl]amino}-3-(fluoromethoxy)-N-methylbenzamide] | < 750 nM
≥ 10000 nM | < 750 nM | < 750 nM | > 90% | < 10 nM | CN1CC[C@@H](Nc2cccn3c(SC(F)(F)F)c(C#CCNc4ccc(P(C)(C)=O)c5ocnc45)cc23)[C@@H](F)C1 [Example 437, 7-(dimethylphosphoryl)-N-[3-(8-{[(3S,4R)-3-fluoro-1-methylpiperidin-4-yl]amino}-3-[(trifluoromethyl)sulfanyl]indolizin-2-yl)prop-2-yn-1-yl]-1,3-benzoxazol-4-amine] | < 750 nM
≥ 10000 nM | < 750 nM | < 750 nM | 80 to 90% | < 10 nM | CS(=O)(=O)CCNC(=O)c1ccc(NCC#Cc2cc3c(N[C@@H]4CCNC[C@@H]4F)cccn3c2SC(F)(F)F)cc1 [Example 438] | < 750 nM
8000 to 10000 nM | < 750 nM | < 750 nM | > 90% | < 10 nM | CNC(=O)c1ccc(NCC#Cc2cn3c(N[C@@H]4CCN(C)C[C@@H]4F)cccc3c2SC(F)F)c(OC)c1 [Example 440] | < 750 nM
